Measured values taken from publication PMC9981719, “A novel designed membrane-active peptide for the control of foodborne Salmonella enterica serovar Typhimurium” (Scientific Reports, 2023).
In brackets after ≈: the same amount, converted by molar mass. Read-outs that look alike come from different tables or passages of the source. Where no end group is shown, it is not given here.

Key:
[1] = system: Salmonella Typhimurium ATCC 13311; assay type: cell-based, Salmonella enterica serovar Typhimurium
Description: (§1) All tests were done in triplicate.

[2] = system: all Gram-negative strains; experiment: Geometric mean of MICs and therapeutic index, Gram-negative strains; assay type: cell-based; conditions: 4 Gram-negative strains
Description: as §1

[3] = system: L929 mouse fibroblast cells; experiment: In vitro cytotoxicity, MTT assay; assay type: cell-based; conditions: 0.98–250 µg/ml, 24 h
Method: The cytotoxicity of A11 was evaluated by the 3-(4,5 dimethylthiazol-2-yl)-2,5-diphenyltetrazolium bromide (MTT) assay. L929 mouse fibroblast cells were cultured in Dulbecco's Modified Eagle Medium (DMEM) supplemented with 1% (v/v) of 100 IU/ml penicillin/streptomycin and 10% (v/v) fetal bovine serum (FBS). The cells were maintained in an air atmosphere containing the 5% CO2 under high humidity at 37 °C. L929 cell lines were seeded into a sterile 96-well plate (1 × 10^4 cells/well) then incubated overnight and treated with different concentrations of A11 (0.98–250 µg/ml) for 24 h. Media were removed, and cultured cells were incubated with 100 µl of MTT solution (4 mg/ml) for 4 h at 37 °C. After removal of MTT solution, the formed formazan was dissolved in 100 µl DMSO. Absorbance was measured by microplate reader at 570 nm; untreated cells served as negative control and melittin-treated cells as a positive control. Cell viability was determined following this equation: Cell viability%=ODTreated/ODControl×100

[4] = system: all Gram-positive strains; experiment: Geometric mean of MICs and therapeutic index, Gram-positive strains; assay type: cell-based; conditions: 4 Gram-positive strains
Description: as §1

[5] = system: Acinetobactero baumanii MT strain; assay type: cell-based; conditions: for MIC: 24 h
Description: as §1

[6] = system: Shigella sonnei ATCC11060; assay type: cell-based; conditions: triplicate; for MIC: broth microdilution in MHB, 37 °C, 24 h; for MBC: colony count on TSA from non-turbid MIC wells
Description: as §1

[7] = system: Pseudomonas aeruginosa ATCC 27853; assay type: cell-based
Description: as §1

[8] = system: Bacillus cereus ATCC 11778; assay type: cell-based
Description: as §1

[9] = system: Listeria monocytogenes 10403s; assay type: cell-based; conditions: for MIC: 24 h
Description: as §1

[10] = system: Staphylococcus epidermidis ATCC 12228; assay type: cell-based; conditions: for MBC: ATCC 12228, 18 h
Description: as §1

[11] = system: panel of human pathogenic bacterial strains; conditions: summary over all tested strains of Table 1
Method: Four Gram-negative bacteria including Salmonella enterica serovar Typhimurium (S. Typhimurium) ATCC 13311 and 16 drug-resistant S. enterica isolates (S. Typhimurium and monophasic variant 4,5,12:i:-), and four Gram-positive bacteria (Staphylococcus aureus ATCC 25923, Staphylococcus epidermidis ATCC 12228, Bacillus cereus ATCC 11778, and Listeria monocytogenes 10403s) were used as test microorganisms. […] All bacterial strains were cultured in a proper medium at 37 °C for 18 h (Table 1).
The minimum inhibitory concentration (MIC) of each peptide was evaluated by broth microdilution assay according to a modification described by the National Committee for Clinical Laboratory Standards (NCCLS)[22]. Mid-logarithmic phase bacterial cells were adjusted to an OD620 of 0.05 in Mueller–Hinton broth (MHB), a universal medium for antibacterial susceptibility testing[23]. Then, 50 µl of bacterial solution was incubated with 50 µl of two-fold serially diluted peptide (0.98–250 µg/ml in PBS) at 37 °C for 24 h with continuous shaking. […] The minimal bactericidal concentration (MBC) of each peptide was determined using a colony count assay. Fifty microliter aliquots of the mixture from each non-turbid well (no growth) from the MIC experiment was spread on Tryptic soy agar (TSA) and cultured overnight at 37 °C. […]

[12] = system: Staphylococcus aureus ATCC 25923; assay type: cell-based; conditions: for MBC: ATCC 25923, 18 h; for MIC: ATCC 25923, 24 h
Description: as §1

[13] = broth microdilution in MHB, 37 °C, triplicate
[14] = colony count on TSA from non-turbid MIC wells, triplicate
[15] = broth microdilution in MHB, 37 °C, 24 h, triplicate

Compound	MIC [6] [µg/mL]	MBC [6] [µg/mL]	MBC ([1]; ATCC 13311, 18 h)	MIC ([1]; ATCC 13311, 24 h)	MBC [12]	MIC [12]	MBC ([5]; 18 h)	MIC [5]	MBC ([7]; ATCC 27853, 18 h)	MIC ([7]; ATCC 27853, 24 h)	MBC ([8]; ATCC 11778, 18 h)	MIC ([8]; ATCC 11778, 24 h)	MBC ([9]; 10403s, 18 h)	MIC ([9]; 10403s)	MBC [10]	MIC ([10]; ATCC 12228, 24 h)	other results
CC[C@H](C)[C@H](NC(=O)CN)C(=O)NCC(=O)N[C@@H](C)C(=O)N[C@H](C(=O)N[C@@H](CC(C)C)C(=O)N[C@@H](CCCCN)C(=O)N[C@H](C(=O)N[C@@H](CC(C)C)C(=O)N[C@H](C(=O)N[C@H](C(=O)NCC(=O)N[C@@H](CC(C)C)C(=O)N1CCC[C@H]1C(=O)N[C@@H](C)C(=O)N[C@@H](CC(C)C)C(=O)N[C@H](C(=O)N[C@@H](CO)C(=O)N[C@@H](Cc1c[nH]c2ccccc12)C(=O)N[C@H](C(=O)N[C@@H](CCCCN)C(=O)N[C@@H](CCCNC(=N)N)C(=O)N[C@@H](CCCCN)C(=O)N[C@@H](CCCNC(=N)N)C(=O)N[C@@H](CCC(N)=O)C(=O)N[C@@H](CCC(N)=O)C(N)=O)[C@@H](C)CC)[C@@H](C)CC)[C@@H](C)O)[C@@H](C)O)C(C)C)C(C)C [Melittin, reference compound]	3.91 (≈ 1.37 µM)	7.81 (≈ 2.74 µM)	–	–	–	–	–	–	–	–	–	–	–	–	–	–	MIC ([1]; broth microdilution in MHB, 37 °C, 24 h, visible inspection, triplicate): 3.91 (3.91) µg/ml; MBC ([1]; colony count on TSA from non-turbid MIC wells, overnight 37 °C, triplicate): 3.91 (3.91) µg/ml; GM (Gr.- strains), geometric mean of MIC values from all Gram-negative strains [2]: 6.8 µg/mL; cytotoxicity toward L929 cells (cell viability, MTT) [3]: strongly cytotoxic; GM (Gr. + strains), geometric mean of MIC values from all Gram-positive strains [4]: 3.91 µg/mL; MIC [5, 13]: 7.81 (7.81) µg/ml; MBC [5, 14]: 7.81 (7.81) µg/ml; MIC [7, 15]: 15.63 (15.63) µg/ml; MBC [7, 14]: 15.63 (15.63) µg/ml; MIC [8, 15]: 3.91 µg/mL (≈ 1.37 µM); MBC [8, 14]: 7.81 µg/mL (≈ 2.74 µM); MIC [9, 13]: 3.91 (3.91) µg/ml; MBC [9, 14]: 3.91 (3.91) µg/ml; MIC [10, 15]: 3.91 (3.91) µg/ml
GNPKVAHCASQIGRSTAWGAVSGA-NH2 [A0, acidocin J1132β, reference compound]	–	–	> 250 (> 250) µg/ml	> 250 (> 250) µg/ml	> 250 (> 250) µg/ml	> 250 (> 250) µg/ml	> 250 (> 250) µg/ml	> 250 (> 250) µg/ml	> 250 (> 250) µg/ml	> 250 (> 250) µg/ml	> 250 (> 250) µg/ml	> 250 (> 250) µg/ml	> 250 (> 250) µg/ml	> 250 (> 250) µg/ml	> 250 (> 250) µg/ml	> 250 (> 250) µg/ml	MIC over the tested bacteria [11]: > 250 µg/mL
GVKKVAHKVVKIGRKVAW-NH2 [A6]	62.5	125	62.5 (62.5) µg/ml	62.5 (62.5) µg/ml	> 250 (> 250) µg/ml	> 250 (> 250) µg/ml	31.25 (31.25) µg/ml	31.25 (31.25) µg/ml	250 µg/mL	125 µg/mL	> 250 (> 250) µg/ml	> 250 (> 250) µg/ml	250 (> 250) µg/ml	250 (> 250) µg/ml	> 250 (> 250) µg/ml	> 250 (> 250) µg/ml	–
GVKKVAHKVVKIGRKVAWGAVSGV-NH2 [A4]	–	–	31.25 (31.25) µg/ml	31.25 (31.25) µg/ml	> 250 (> 250) µg/ml	> 250 (> 250) µg/ml	31.25 µg/mL	15.63 µg/mL	250 (250) µg/ml	250 (250) µg/ml	> 250 (> 250) µg/ml	> 250 (> 250) µg/ml	250 (> 250) µg/ml	250 (> 250) µg/ml	250 (250) µg/ml	250 (250) µg/ml	–
GVKKVARKVVKIGRKVAR-NH2 [A9]	–	–	62.5 (62.5) µg/ml	62.5 (62.5) µg/ml	> 250 (> 250) µg/ml	> 250 (> 250) µg/ml	125 µg/mL	–	250 (250) µg/ml	250 (250) µg/ml	> 250 (> 250) µg/ml	> 250 (> 250) µg/ml	250 (> 250) µg/ml	250 (> 250) µg/ml	> 250 µg/mL	62.5 µg/mL	–
